Our source for the IC50 and Ki values is patent publication US20250270172A1, “Pyrimidine Derivatives As Modulators of the 5-HT2A Serotonin Receptor Useful For The Treatment of Disorders Related Thereto” (Arena Pharmaceuticals, Inc., priority 2020, published 2025).

Usually IC50 stands for the concentration needed to halve the response being measured. Low readings indicate greater potency in that assay, high ones weaker potency in that assay. The term Ki denotes the dissociation constant of the complex between target and ligand, obtained from inhibition or displacement.

Experiment [1] deals with T1, 5-HT2A (Homo sapiens (Human), UniProt P28223). Description: HTRF IP-One antagonist assay, 5-HT2A.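 Note: clonal line with low receptor density (about 50–70 fmol/mg), 10-point dose-response from 10 µM in 5-fold steps, HTRF detection after 1 hr, triplicate points.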 The experiment is classed as cell-based. Particulars: HEK293 cells stably expressing receptor, inositol phosphate accumulation, 80 nM 5-HT in Assay Buffer. A general note: In TR-FRET formats the signal depends on donor and acceptor labels being close together.
The next experiment deals with 5-HT2B (Homo sapiens (Human), UniProt P41595). Description: HTRF IP-One antagonist assay, 5-HT2B.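 Note: clonal HEK293 line with low 5-HT2B expression (estimated 150-200 fmol/mg by radioligand binding), IP-One HTRF readout, 10-point curves from 10 µM in 5-fold steps, triplicate points.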 The experiment is classed as cell-based. Particulars: HEK293 cells stably expressing receptor, inositol phosphate accumulation, 80 nM 5-HT in Assay Buffer.
In another experiment the target is 5-HT2C (Homo sapiens (Human), UniProt P28335). Description: HTRF IP-One antagonist assay, 5-HT2C.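 Note: clonal HEK293 line with low 5-HT2C density (10–20 fmol/mg), HTRF detection of IP-One, 10-point dose curves from 10 µM in 5-fold steps, triplicate points.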 It counts as cell-based. Conditions: HEK293 cells stably expressing receptor, inositol phosphate accumulation, 80 nM 5-HT in Assay Buffer.
Experiment [2] deals with T1, 5-HT2A. Description: Radioligand binding assay, [^3H]5-HT competition, 5-HT2A. Conditions: [^3H]5-HT radioligand, membranes of HEK293 cells expressing recombinant 5-HT2A; Ki from IC50 by Cheng-Prusoff; read-out: 5-HT2A serotonin binding Ki value.

“And” between values parts separate entries of the source, which are not always exact repeats. Identical values can stand only once.

T1 sequence (P28223 whole entry): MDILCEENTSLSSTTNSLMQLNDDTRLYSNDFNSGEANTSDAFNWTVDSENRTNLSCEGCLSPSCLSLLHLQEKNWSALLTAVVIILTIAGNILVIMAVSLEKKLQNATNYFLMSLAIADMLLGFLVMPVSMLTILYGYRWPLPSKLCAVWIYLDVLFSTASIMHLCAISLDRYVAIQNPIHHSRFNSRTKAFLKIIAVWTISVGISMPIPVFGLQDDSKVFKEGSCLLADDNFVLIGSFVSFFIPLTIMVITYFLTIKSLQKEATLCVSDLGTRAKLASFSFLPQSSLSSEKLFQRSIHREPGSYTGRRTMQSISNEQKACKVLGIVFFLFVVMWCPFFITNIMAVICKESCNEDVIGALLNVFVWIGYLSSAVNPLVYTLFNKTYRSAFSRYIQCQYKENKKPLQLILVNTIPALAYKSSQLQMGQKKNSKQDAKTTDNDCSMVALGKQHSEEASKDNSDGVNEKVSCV
Sequence of 5-HT2C (P28335 33-458): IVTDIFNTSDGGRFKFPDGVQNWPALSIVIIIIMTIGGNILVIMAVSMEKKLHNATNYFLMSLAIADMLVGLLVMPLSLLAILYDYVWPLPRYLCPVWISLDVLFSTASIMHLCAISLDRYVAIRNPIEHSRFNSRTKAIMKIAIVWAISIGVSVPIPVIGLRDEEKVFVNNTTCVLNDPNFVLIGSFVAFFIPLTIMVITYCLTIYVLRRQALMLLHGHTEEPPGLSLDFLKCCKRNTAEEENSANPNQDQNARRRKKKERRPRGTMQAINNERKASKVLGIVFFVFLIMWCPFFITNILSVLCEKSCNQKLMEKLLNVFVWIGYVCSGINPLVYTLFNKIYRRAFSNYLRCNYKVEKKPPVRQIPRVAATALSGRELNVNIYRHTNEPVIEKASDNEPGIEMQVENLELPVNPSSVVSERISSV
Sequence of 5-HT2B (P41595 whole entry): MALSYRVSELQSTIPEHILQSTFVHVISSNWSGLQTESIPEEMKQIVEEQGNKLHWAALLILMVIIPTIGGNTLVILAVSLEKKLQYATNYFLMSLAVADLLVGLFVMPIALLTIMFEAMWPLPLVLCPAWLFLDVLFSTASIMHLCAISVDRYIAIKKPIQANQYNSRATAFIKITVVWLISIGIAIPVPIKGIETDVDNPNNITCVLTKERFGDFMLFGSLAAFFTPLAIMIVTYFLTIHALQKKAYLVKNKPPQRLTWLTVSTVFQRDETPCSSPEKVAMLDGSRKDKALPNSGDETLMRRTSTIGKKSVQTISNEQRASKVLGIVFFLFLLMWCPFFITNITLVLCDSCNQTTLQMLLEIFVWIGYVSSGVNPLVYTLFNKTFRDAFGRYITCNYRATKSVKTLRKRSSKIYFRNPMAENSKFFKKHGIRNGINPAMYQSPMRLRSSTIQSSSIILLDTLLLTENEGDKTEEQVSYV

With `Cc1ncnc(C)c1-c1cc(NC(=O)c2cccn2C)ccc1OCCN1CCCC1` [Compound 200, N-(3-(4,6-dimethylpyrimidin-5-yl)-4-(2-(pyrrolidin-1-yl)ethoxy)phenyl)-1-methyl-1H-pyrrole-2-carboxamide], the IC50 is 11.7 nM against 5-HT2A [1], 100000 nM at 5-HT2B and 100000 nM on 5-HT2C. On 5-HT2A [2], the Ki came out at 3.72 nM.

As for `Cc1ncnc(C)c1-c1cc(NC(=O)c2ccnn2C)ccc1OCCN1CCCC1` [Compound 202, N-(3-(4,6-dimethylpyrimidin-5-yl)-4-(2-(pyrrolidin-1-yl)ethoxy)phenyl)-1-methyl-1H-pyrazole-5-carboxamide], the IC50 against 5-HT2A [1] is 6.35 nM; against 5-HT2B, 100000 nM; against 5-HT2C, 100000 nM. Besides, the Ki on 5-HT2A [2] was 5.25 nM.

In the case of `Cc1ncnc(C)c1-c1cc(NC(=O)c2cc(F)ccn2)ccc1OCCN1CCCC1` [Compound 209, N-(3-(4,6-dimethylpyrimidin-5-yl)-4-(2-(pyrrolidin-1-yl)ethoxy)phenyl)-4-fluoropicolinamide], the IC50 on 5-HT2A [1] amounted to 26.2 nM; against 5-HT2B, 100000 nM; against 5-HT2C it was 100000 nM. Also, the Ki at 5-HT2A [2] stood at 4.8 nM.

As for `Cc1ncsc1C(=O)Nc1ccc(OCCN2CCCC2)c(-c2c(C)ncnc2C)c1` [Compound 214, N-(3-(4,6-dimethylpyrimidin-5-yl)-4-(2-(pyrrolidin-1-yl)ethoxy)phenyl)-4-methylthiazole-5-carboxamide], the values for the IC50 against 5-HT2A [1], against 5-HT2B and at 5-HT2C were 5.16 nM, 100000 nM and 100000 nM, respectively. For the same compound, the Ki on 5-HT2A [2] worked out at 3.25 nM.

Turning to `Cc1ncoc1C(=O)Nc1ccc(OCCN2CCCC2)c(-c2c(C)ncnc2C)c1` [Compound 217, N-(3-(4,6-dimethylpyrimidin-5-yl)-4-(2-(pyrrolidin-1-yl)ethoxy)phenyl)-4-methyloxazole-5-carboxamide], the IC50 is 18.5 nM against 5-HT2A [1], 100000 nM against 5-HT2B and 100000 nM against 5-HT2C. Also, the Ki on 5-HT2A [2] is 7.23 nM.

As to `Cc1ncnc(C)c1-c1cc(NC(=O)C2C3COCC32)ccc1OCCN1CCCC1` (stereo not shown) [Compound 232, N-(3-(4,6-dimethylpyrimidin-5-yl)-4-(2-(pyrrolidin-1-yl)ethoxy)phenyl)-3-oxabicyclo[3.1.0]hexane-6-carboxamide], the IC50 on 5-HT2A [1] was 140 nM; at 5-HT2B, 100000 nM; against 5-HT2C it was 100000 nM. In addition, on 5-HT2A [2], the Ki is 24.5 nM.

In the case of `Cc1ncnc(C)c1-c1cc(NC(=O)C2(F)CC2)ccc1OCCN1CCCC1` [Compound 233], the IC50 on 5-HT2A [1] came out at 8.55 nM; against 5-HT2B it was 100000 nM; on 5-HT2C, 100000 nM. The inhibitory constant (Ki) on 5-HT2A [2] is 3.81 nM and 4.66 nM.

As to `Cc1ncnc(C)c1-c1cc(NC(=O)Cn2cccc2)ccc1OCCN1CCCC1` [Compound 243, N-[3-(4,6-dimethylpyrimidin-5-yl)-4-(2-pyrrolidin-1-ylethoxy)phenyl]-2-pyrrol-1-yl-acetamide], the results for the IC50 against 5-HT2A [1], against 5-HT2B and on 5-HT2C were 14.8 nM, 100000 nM and 100000 nM, respectively. Further, the Ki at 5-HT2A [2] was 8.59 nM.

As to `COC1(C(=O)Nc2ccc(OCCN3CCCC3)c(-c3c(C)ncnc3C)c2)CC1` [Compound 244, N-[3-(4,6-dimethylpyrimidin-5-yl)-4-(2-pyrrolidin-1-ylethoxy)phenyl]-1-methoxy-cyclopropanecarboxamide], the values for the IC50 against 5-HT2A [1], against 5-HT2B and against 5-HT2C were 13.5 nM, 100000 nM and 100000 nM, respectively. In addition, on 5-HT2A [2], the Ki stood at 6.51 nM.

For the compound `COc1cccc(C(=O)Nc2ccc(OCCN3CCCC3)c(-c3c(C)ncnc3C)c2)c1` [Compound 273, N-(3-(4,6-dimethylpyrimidin-5-yl)-4-(2-(pyrrolidin-1-yl)ethoxy)phenyl)-3-methoxybenzamide], the figures for the half-maximal inhibitory concentration (IC50) on 5-HT2A [1] and on 5-HT2C were 1.68 nM and 100000 nM, respectively. Further, the Ki on 5-HT2A [2] worked out at 1.11 nM.

Turning to `Cc1ncsc1C(=O)Nc1ccc(OCCN2CCC2)c(-c2c(C)ncnc2C)c1` [Compound 306, N-(4-(2-(azetidin-1-yl)ethoxy)-3-(4,6-dimethylpyrimidin-5-yl)phenyl)-4-methylthiazole-5-carboxamide], the figures for the IC50 on 5-HT2A [1] and against 5-HT2C were 6.14 nM and 100000 nM, respectively. The inhibition constant Ki on 5-HT2A [2] came out at 2.65 nM.

As to `Cc1ncnc(C)c1-c1cc(NC(=O)Cc2cccc(F)c2)ccc1OCCN1CCC1` [Compound 312, N-(4-(2-(azetidin-1-yl)ethoxy)-3-(4,6-dimethylpyrimidin-5-yl)phenyl)-2-(3-fluorophenyl)acetamide], the IC50 worked out at 2.38 nM on 5-HT2A [1] and 100000 nM against 5-HT2C. At 5-HT2A [2], the Ki was determined as 0.813 nM.

Regarding `Cc1ccccc1C(=O)Nc1ccc(OCCN2CCC2)c(-c2c(C)ncnc2C)c1` [Compound 321, N-(4-(2-(azetidin-1-yl)ethoxy)-3-(4,6-dimethylpyrimidin-5-yl)phenyl)-2-methylbenzamide], the IC50 came to 25.7 nM on 5-HT2A [1], 5400 nM against 5-HT2B and 100000 nM on 5-HT2C.

With `Cc1ncnc(C)c1-c1cc(NC(=O)c2cnsc2)ccc1OC[C@H]1CCCCN1` [Compound 433, (R)—N-(3-(4,6-dimethylpyrimidin-5-yl)-4-(piperidin-2-ylmethoxy)phenyl) isothiazole-4-carboxamide], on 5-HT2A [2], the Ki is 9.98 nM.

Turning to `Cc1nscc1C(=O)Nc1ccc(OC[C@H]2CCCCN2)c(-c2c(C)ncnc2C)c1` [Compound 434, (R)—N-(3-(4,6-dimethylpyrimidin-5-yl)-4-(piperidin-2-ylmethoxy)phenyl)-3-methylisothiazole-4-carboxamide], the Ki at 5-HT2A [2] is 19.3 nM.

With `Cc1ncnc(C)c1-c1cc(NC(=O)c2ncsc2C)ccc1OC[C@H]1CCCCN1` [Compound 435, (R)—N-(3-(4,6-dimethylpyrimidin-5-yl)-4-(piperidin-2-ylmethoxy)phenyl)-5-methylthiazole-4-carboxamide], the IC50 against 5-HT2A [1] amounted to 43.2 nM; at 5-HT2C, 100000 nM. On 5-HT2A [2], the Ki came out at 10.7 nM.

Regarding `Cc1ncnc(C)c1-c1cc(NC(=O)c2cccn2C)ccc1OC[C@H]1CCCCN1` [Compound 436, (R)—N-(3-(4,6-dimethylpyrimidin-5-yl)-4-(piperidin-2-ylmethoxy)phenyl)-1-methyl-1H-pyrrole-2-carboxamide], the IC50 against 5-HT2A [1] was found to be 27.2 nM; against 5-HT2C, 100000 nM. Further, at 5-HT2A [2], the Ki was 6.05 nM.

For `Cc1ncnc(C)c1-c1cc(NC(=O)c2ccnn2C)ccc1OC[C@H]1CCCCN1` [Compound 437, N-[3-(4,6-dimethylpyrimidin-5-yl)-4-[[(2R)-2-piperidyl]methoxy]phenyl]-2-methyl-pyrazole-3-carboxamide], the Ki on 5-HT2A [2] came out at 10.7 nM.

On to `COC1(C(=O)Nc2ccc(OC[C@H]3CCCCN3)c(-c3c(C)ncnc3C)c2)CC1` [Compound 439, (R)—N-(3-(4,6-dimethylpyrimidin-5-yl)-4-(piperidin-2-ylmethoxy)phenyl)-1-methoxycyclopropane-1-carboxamide], for which the inhibitory constant (Ki) on 5-HT2A [2] was found to be 14.6 nM.

As to `Cc1ncnc(C)c1-c1cc(NC(=O)C2(O)CC2)ccc1OC[C@H]1CCCCN1` [Compound 440, (R)—N-(3-(4,6-dimethylpyrimidin-5-yl)-4-(piperidin-2-ylmethoxy)phenyl)-1-hydroxycyclopropane-1-carboxamide], on 5-HT2A [2], the Ki is 65.1 nM.

With `CCC[C@@H](F)C(=O)Nc1ccc(OC[C@H]2CCCCN2)c(-c2c(C)ncnc2C)c1` [Compound 441, (R)—N-[3-(4,6-dimethylpyrimidin-5-yl)-4-[[(2R)-2-piperidyl]methoxy]phenyl]-2-fluoro-pentanamide], the figures for the IC50 against 5-HT2A [1] and against 5-HT2C were 12.1 nM and 100000 nM, respectively. Also, the Ki at 5-HT2A [2] came to 5.67 nM.

Regarding `Cc1ncnc(C)c1-c1cc(NC(=O)[C@H](F)C(C)C)ccc1OC[C@H]1CCCCN1` [Compound 442, (R)—N-(3-(4,6-dimethylpyrimidin-5-yl)-4-(((R)-piperidin-2-yl)methoxy)phenyl)-2-fluoro-3-methylbutanamide], on 5-HT2A [2], the Ki was determined as 17.1 nM.

`Cc1ncnc(C)c1-c1cc(NC(=O)[C@@H](F)C(C)C)ccc1OC[C@H]1CCCCN1` [Compound 443, (S)—N-(3-(4,6-dimethylpyrimidin-5-yl)-4-(((R)-piperidin-2-yl)methoxy)phenyl)-2-fluoro-3-methylbutanamide]: the inhibition constant (Ki) at 5-HT2A [2] was 18.8 nM.

For the compound `Cc1ncnc(C)c1-c1cc(NC(=O)C2(F)CCOCC2)ccc1OC[C@H]1CCCCN1` [Compound 445, (R)—N-(3-(4,6-dimethylpyrimidin-5-yl)-4-(piperidin-2-ylmethoxy)phenyl)-4-fluorotetrahydro-2H-pyran-4-carboxamide], the Ki at 5-HT2A [2] worked out at 63.3 nM.

Consider `Cc1ncnc(C)c1-c1cc(NC(=O)c2ccccc2)ccc1OC[C@H]1CCCCN1` [Compound 448, (R)—N-(3-(4,6-dimethylpyrimidin-5-yl)-4-(piperidin-2-ylmethoxy)phenyl)benzamide], for which the Ki on 5-HT2A [2] was 1.7 nM.

Take `Cc1ncnc(C)c1-c1cc(NC(=O)c2cccc(F)c2)ccc1OC[C@H]1CCCCN1` [Compound 449, (R)—N-(3-(4,6-dimethylpyrimidin-5-yl)-4-(piperidin-2-ylmethoxy)phenyl)-3-fluorobenzamide]: the Ki on 5-HT2A [2] was 6.49 nM.

Consider `COc1cccc(C(=O)Nc2ccc(OC[C@H]3CCCCN3)c(-c3c(C)ncnc3C)c2)c1` [Compound 450, (R)—N-(3-(4,6-dimethylpyrimidin-5-yl)-4-(piperidin-2-ylmethoxy)phenyl)-3-methoxybenzamide], for which the Ki on 5-HT2A [2] amounted to 1.03 nM.

For the compound `CC(=N)NCCOc1ccc(NC(=O)C2CC2)cc1-c1c(C)ncnc1C` [Compound 451, N-(4-(2-acetimidamidoethoxy)-3-(4,6-dimethylpyrimidin-5-yl)phenyl)cyclopropanecarboxamide], the Ki at 5-HT2A [2] is 52.6 nM.

In the case of `Cc1ncnc(C)c1-c1cc(NC(=O)C2(F)CC2)ccc1O[C@@H]1CCCNC1` [Compound 452, (R)—N-(3-(4,6-dimethylpyrimidin-5-yl)-4-(piperidin-3-yloxy)phenyl)-1-fluorocyclopropane-1-carboxamide], the inhibitory constant (Ki) at 5-HT2A [2] amounted to 15 nM.
